Results reported in article PMC4051630, “A Comparison of Protein Kinases Inhibitor Screening Methods Using Both Enzymatic Activity and Binding Affinity Determination” (PLoS ONE, 2014).

Assays:
Experiment in all cases: Differential Scanning Fluorimetry (DSF) Tm shift
Type in all cases: binding
CDK2 + Cyclin A = target: T1, CDK2 + Cyclin A (Homo sapiens, UniProt P24941); details: CDK2 + Cyclin A; 2 µM protein, 10 µM inhibitor; average of 3 experiments, each in duplicate
T1 construct: CDK2 (P24941); 1–299; His-tag; made in house; host or cells: Escherichia coli

CDK2 + Cyclin E = target: T2, CDK2 + Cyclin E (Homo sapiens, UniProt P24941); details: CDK2 + Cyclin E; 2 µM protein, 10 µM inhibitor; average of 3 experiments, each in duplicate
T2 construct: CDK2 (P24941); 1–299; His-tag; made in house; host or cells: Escherichia coli

CHK2 Catalytic Domain = target: T3, CHK2 Catalytic Domain (Homo sapiens, UniProt O96017); details: 2 µM protein, 10 µM inhibitor, average of 3 experiments, each in duplicate
T3 construct: For all of them, we expressed and purified the catalytic domain separately; His-tag; made in house; host or cells: Escherichia coli
T3 sequence (O96017 220-486 limits assumed): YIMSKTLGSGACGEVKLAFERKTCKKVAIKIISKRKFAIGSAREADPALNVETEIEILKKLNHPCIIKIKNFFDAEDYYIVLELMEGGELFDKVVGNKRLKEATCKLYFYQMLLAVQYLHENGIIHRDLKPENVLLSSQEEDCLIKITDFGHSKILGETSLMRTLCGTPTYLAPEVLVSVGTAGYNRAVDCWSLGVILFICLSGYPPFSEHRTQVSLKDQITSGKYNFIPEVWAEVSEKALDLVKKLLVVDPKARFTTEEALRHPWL

DMPK Catalytic Domain = target: T4, DMPK Catalytic Domain (Homo sapiens, UniProt Q09013); details: 2 µM protein, 10 µM inhibitor, average of 3 experiments, each in duplicate
T4 construct: For all of them, we expressed and purified the catalytic domain separately; His-tag; made in house; host or cells: Escherichia coli
T4 sequence (Q09013 71-339 limits assumed): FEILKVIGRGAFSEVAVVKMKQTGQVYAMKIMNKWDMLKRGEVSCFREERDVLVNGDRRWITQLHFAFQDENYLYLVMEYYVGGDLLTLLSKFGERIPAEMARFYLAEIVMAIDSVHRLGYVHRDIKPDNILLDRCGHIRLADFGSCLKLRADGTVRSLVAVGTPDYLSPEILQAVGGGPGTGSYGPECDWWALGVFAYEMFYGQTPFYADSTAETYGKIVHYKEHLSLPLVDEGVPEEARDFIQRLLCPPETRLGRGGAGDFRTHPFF

FAK2 Catalytic Domain = target: T5, FAK2 Catalytic Domain (Homo sapiens, UniProt Q14289); details: 2 µM protein, 10 µM inhibitor, average of 3 experiments, each in duplicate
T5 construct: For all of them, we expressed and purified the catalytic domain separately; His-tag; made in house; host or cells: Escherichia coli
T5 sequence (Q14289 425-683 limits assumed): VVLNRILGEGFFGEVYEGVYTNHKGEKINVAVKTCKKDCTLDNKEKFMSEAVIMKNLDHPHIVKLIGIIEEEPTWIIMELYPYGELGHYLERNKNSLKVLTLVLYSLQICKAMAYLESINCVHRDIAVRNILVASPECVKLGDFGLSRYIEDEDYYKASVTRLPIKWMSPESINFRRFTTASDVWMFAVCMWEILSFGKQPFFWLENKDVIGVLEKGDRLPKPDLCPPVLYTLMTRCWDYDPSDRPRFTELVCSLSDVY

FES Catalytic Domain = target: T6, FES Catalytic Domain (Homo sapiens, UniProt P07332); details: 2 µM protein, 10 µM inhibitor, average of 3 experiments, each in duplicate
T6 construct: For all of them, we expressed and purified the catalytic domain separately; His-tag; made in house; host or cells: Escherichia coli
T6 sequence (P07332 561-822 limits assumed): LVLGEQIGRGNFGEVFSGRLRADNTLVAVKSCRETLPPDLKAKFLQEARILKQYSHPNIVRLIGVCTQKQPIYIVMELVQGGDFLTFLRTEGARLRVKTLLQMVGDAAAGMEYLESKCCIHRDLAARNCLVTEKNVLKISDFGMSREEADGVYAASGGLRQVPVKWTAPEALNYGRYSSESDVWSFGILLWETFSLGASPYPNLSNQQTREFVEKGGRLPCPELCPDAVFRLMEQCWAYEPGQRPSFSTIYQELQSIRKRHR

PAK7 Catalytic Domain = target: T7, PAK7 Catalytic Domain (Homo sapiens, UniProt Q9P286); details: 2 µM protein, 10 µM inhibitor, average of 3 experiments, each in duplicate
T7 construct: For all of them, we expressed and purified the catalytic domain separately; His-tag; made in house; host or cells: Escherichia coli
T7 sequence (Q9P286 449-700 limits assumed): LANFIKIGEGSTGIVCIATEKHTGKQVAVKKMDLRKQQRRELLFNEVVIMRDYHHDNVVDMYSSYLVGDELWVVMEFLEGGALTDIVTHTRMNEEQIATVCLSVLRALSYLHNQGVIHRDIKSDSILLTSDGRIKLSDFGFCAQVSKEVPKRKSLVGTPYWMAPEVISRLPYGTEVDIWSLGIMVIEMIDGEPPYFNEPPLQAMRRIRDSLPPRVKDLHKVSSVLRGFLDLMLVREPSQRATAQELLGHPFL

STK3 Catalytic Domain = target: T8, STK3 Catalytic Domain (Homo sapiens, UniProt Q13188); details: 2 µM protein, 10 µM inhibitor, average of 3 experiments, each in duplicate
T8 construct: For all of them, we expressed and purified the catalytic domain separately; His-tag; made in house; host or cells: Escherichia coli
T8 sequence (Q13188 27-278 limits assumed): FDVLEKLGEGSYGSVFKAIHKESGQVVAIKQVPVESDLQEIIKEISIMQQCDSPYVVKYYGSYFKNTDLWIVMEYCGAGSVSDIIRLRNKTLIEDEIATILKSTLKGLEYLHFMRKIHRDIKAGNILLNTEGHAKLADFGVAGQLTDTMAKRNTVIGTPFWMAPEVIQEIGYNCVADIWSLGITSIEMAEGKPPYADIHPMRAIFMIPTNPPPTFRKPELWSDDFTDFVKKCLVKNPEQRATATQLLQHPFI

FES Catalytic Domain+SH2 = target: T9, FES Catalytic Domain+SH2 (Homo sapiens, UniProt P07332); details: 2 µM protein, 10 µM inhibitor, average of 3 experiments, each in duplicate
T9 construct: for 8, we also made a longer version containing one or more additional domains; His-tag; made in house; host or cells: Escherichia coli
T9 sequence (P07332 448-822 limits assumed): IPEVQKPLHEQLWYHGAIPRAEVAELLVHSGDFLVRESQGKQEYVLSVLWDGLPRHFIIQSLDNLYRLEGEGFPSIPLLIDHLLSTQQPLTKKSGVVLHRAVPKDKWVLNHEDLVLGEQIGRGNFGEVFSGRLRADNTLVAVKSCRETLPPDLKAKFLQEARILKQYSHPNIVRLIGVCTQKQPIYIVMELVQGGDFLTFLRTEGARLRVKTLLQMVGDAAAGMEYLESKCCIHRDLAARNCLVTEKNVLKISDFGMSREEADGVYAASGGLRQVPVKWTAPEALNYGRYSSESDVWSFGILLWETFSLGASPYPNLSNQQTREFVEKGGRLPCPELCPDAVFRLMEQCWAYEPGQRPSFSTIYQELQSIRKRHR

[1] = target: T10, PAK4 Catalytic Domain+PBD (Homo sapiens, UniProt O96013); details: 2 µM protein, 10 µM inhibitor, average of 3 experiments, each in duplicate
T10 construct: for 8, we also made a longer version containing one or more additional domains; His-tag; made in house; host or cells: Escherichia coli
T10 sequence (O96013 whole entry, the tested form may be a part): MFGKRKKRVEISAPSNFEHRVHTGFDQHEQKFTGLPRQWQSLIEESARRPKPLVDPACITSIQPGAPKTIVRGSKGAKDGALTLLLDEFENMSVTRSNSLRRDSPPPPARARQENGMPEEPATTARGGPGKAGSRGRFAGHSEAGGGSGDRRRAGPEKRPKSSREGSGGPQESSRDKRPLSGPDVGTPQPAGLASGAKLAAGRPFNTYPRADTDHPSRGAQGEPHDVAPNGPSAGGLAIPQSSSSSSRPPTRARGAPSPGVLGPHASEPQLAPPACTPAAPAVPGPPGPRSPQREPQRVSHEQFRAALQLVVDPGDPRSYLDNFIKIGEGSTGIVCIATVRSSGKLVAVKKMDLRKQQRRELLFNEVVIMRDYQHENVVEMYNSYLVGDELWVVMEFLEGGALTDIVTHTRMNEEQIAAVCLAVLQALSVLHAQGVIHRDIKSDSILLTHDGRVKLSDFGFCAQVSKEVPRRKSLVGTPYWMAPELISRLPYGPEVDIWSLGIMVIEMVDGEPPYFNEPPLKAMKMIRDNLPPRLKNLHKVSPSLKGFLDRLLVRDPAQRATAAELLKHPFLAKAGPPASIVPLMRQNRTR

PAK4 Catalytic Domain = target: T11, PAK4 Catalytic Domain (Homo sapiens, UniProt O96013); details: 2 µM protein, 10 µM inhibitor, average of 3 experiments, each in duplicate
T11 construct: For all of them, we expressed and purified the catalytic domain separately; His-tag; made in house; host or cells: Escherichia coli
T11 sequence (O96013 321-572 limits assumed): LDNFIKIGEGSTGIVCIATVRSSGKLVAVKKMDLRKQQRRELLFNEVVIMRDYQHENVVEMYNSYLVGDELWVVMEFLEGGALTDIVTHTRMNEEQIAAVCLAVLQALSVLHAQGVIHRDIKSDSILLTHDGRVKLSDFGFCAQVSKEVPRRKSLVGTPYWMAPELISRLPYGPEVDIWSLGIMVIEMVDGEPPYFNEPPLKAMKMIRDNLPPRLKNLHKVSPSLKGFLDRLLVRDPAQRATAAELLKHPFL

[2] = target: T12, STK3 Catalytic domain+SARAH (Homo sapiens, UniProt Q13188); details: 2 µM protein, 10 µM inhibitor, average of 3 experiments, each in duplicate
T12 construct: for 8, we also made a longer version containing one or more additional domains; His-tag; made in house; host or cells: Escherichia coli
T12 sequence (Q13188 1-491): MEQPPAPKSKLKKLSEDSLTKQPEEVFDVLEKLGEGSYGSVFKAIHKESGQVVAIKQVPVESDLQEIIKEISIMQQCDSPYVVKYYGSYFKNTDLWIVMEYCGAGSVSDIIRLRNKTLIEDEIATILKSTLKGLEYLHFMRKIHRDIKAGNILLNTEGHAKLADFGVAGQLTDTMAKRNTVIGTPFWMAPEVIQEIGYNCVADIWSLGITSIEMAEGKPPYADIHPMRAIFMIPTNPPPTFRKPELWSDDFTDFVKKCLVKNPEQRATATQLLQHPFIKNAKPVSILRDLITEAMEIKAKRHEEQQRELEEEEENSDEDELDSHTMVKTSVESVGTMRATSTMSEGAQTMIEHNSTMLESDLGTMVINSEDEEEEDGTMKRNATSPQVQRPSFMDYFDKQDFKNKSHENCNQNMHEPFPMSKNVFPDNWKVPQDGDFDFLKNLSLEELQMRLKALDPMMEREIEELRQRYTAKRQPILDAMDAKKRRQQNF

AKT3 Catalytic Domain = target: T13, AKT3 Catalytic Domain (Homo sapiens, UniProt Q9Y243); details: 2 µM protein, 10 µM inhibitor, average of 3 experiments, each in duplicate
T13 construct: AKT3 (Q9Y243); CD; His-tag; made in house; host or cells: Escherichia coli
T13 sequence (Q9Y243 122-479): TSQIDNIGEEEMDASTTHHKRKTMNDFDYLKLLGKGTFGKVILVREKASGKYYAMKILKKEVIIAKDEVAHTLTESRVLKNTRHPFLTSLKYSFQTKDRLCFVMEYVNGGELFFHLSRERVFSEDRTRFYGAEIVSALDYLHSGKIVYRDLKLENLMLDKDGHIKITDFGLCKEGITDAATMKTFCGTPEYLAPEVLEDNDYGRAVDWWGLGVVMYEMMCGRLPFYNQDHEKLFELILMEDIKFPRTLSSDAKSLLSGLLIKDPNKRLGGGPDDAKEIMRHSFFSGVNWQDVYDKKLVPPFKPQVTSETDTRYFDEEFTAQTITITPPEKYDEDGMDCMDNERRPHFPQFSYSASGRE

Structure (SMILES)	Melting temperature (Tm) shift (CDK2 + Cyclin A) [degrees Celcius]	Melting temperature (Tm) shift (CDK2 + Cyclin E) [degrees Celcius]	Melting temperature (Tm) shift (CHK2 Catalytic Domain) [degrees Celcius]	Melting temperature (Tm) shift (DMPK Catalytic Domain) [degrees Celcius]	Melting temperature (Tm) shift (FAK2 Catalytic Domain) [degrees Celcius]	Melting temperature (Tm) shift (FES Catalytic Domain) [degrees Celcius]	Melting temperature (Tm) shift (STK3 Catalytic Domain) [degrees Celcius]	Melting temperature (Tm) shift (AKT3 Catalytic Domain) [degrees Celcius]	Melting temperature (Tm) shift (PAK7 Catalytic Domain) [degrees Celcius]	Melting temperature (Tm) shift (FES Catalytic Domain+SH2) [degrees Celcius]	Melting temperature (Tm) shift [1] [degrees Celcius]	Melting temperature (Tm) shift (PAK4 Catalytic Domain) [degrees Celcius]	Melting temperature (Tm) shift [2] [degrees Celcius]
O=C1Nc2ccc(Cl)cc2C1=Cc1cc(Cl)c(O)c(Cl)c1 [PKR Inhibitor, Negative Control]		0.6	3.9	3.2		0.4	1.2		0.3	0.5	1.5	0.9	2.1
O=C1c2ccccc2-c2nc3nnnn3nc21 [PDK1/Akt/Flt Dual Pathway Inhibitor]	0.1	0.4	0.6			0.0		3.1					0.0
CC(C)(C)c1nc2c3cc[nH]c(=O)c3c3cc(F)ccc3c2[nH]1 [JAK Inhibitor I]	0.0	0.0	8.8		3.0	0.1	2.1		0.2	0.1	0.2	0.2	3.2
O=C1NC(=O)c2c1c1c3ccccc3[nH]c1c1[nH]c3cc(Br)ccc3c21 [Cdk4 Inhibitor]		0.7		0.8							0.4	0.7	

The next lines start with results.

Melting temperature (Tm) shift (CDK2 + Cyclin A) [degrees Celcius]	Melting temperature (Tm) shift (CDK2 + Cyclin E) [degrees Celcius]	Melting temperature (Tm) shift (CHK2 Catalytic Domain) [degrees Celcius]	Melting temperature (Tm) shift (DMPK Catalytic Domain) [degrees Celcius]	Melting temperature (Tm) shift (FAK2 Catalytic Domain) [degrees Celcius]	Melting temperature (Tm) shift (FES Catalytic Domain) [degrees Celcius]	Melting temperature (Tm) shift (STK3 Catalytic Domain) [degrees Celcius]	Melting temperature (Tm) shift (AKT3 Catalytic Domain) [degrees Celcius]	Structure (SMILES)	Melting temperature (Tm) shift (PAK7 Catalytic Domain) [degrees Celcius]	Melting temperature (Tm) shift (FES Catalytic Domain+SH2) [degrees Celcius]	Melting temperature (Tm) shift [1] [degrees Celcius]	Melting temperature (Tm) shift (PAK4 Catalytic Domain) [degrees Celcius]	Melting temperature (Tm) shift [2] [degrees Celcius]
0.0	0.0	0.0	0.2	0.1	0.0	0.0		CCN1/C(=C/C(C)=O)Sc2ccc(OC)cc21 [Cdc2-Like Kinase Inhibitor, TG003]	0.0				
3.6	2.0	0.8	0.3	0.0	1.1	0.3		CC(C)n1cnc2c(NCc3ccccc3O)nc(NCCCO)nc21 [Cdk Inhibitor, p35]	1.1	0.2	3.9	1.4	0.4
	0.1	0.1	0.3	0.0	0.0	0.2	0.0	O=C1NC(=O)C(=Cc2ccc3c(c2)OCO3)S1 [PI 3-Kγ Inhibitor VII]					
